Measurements as given in patent publication US6416965B2, “Screening methods for presqualene disphosphate analogs” (Brigham and Women's Hospital, priority 1997, dated 2002).

Legend:
neutrophils = test: fMLP-stimulated intracellular calcium mobilization in FURA-2 loaded neutrophils; type: cell-based, human; conditions: PSDP 1 μM, 5 min 37° C.; 1 nM fMLP; EDTA 5 mM
Protocol: Inositol trisphosphate is known to be an important intracellular mediator of calcium mobilization from intracellular stores, a critical event in cellular activation (Exton, JH, Annual Review of Pharmacology and Toxicology 1996; 36:481). In order to determine the functional importance of the PSDP-mediated reduction in IP3 levels, fMLP-stimulated intracellular calcium mobilization in the presence of polyisoprenyl phosphates was measured. FURA-2 (1 μM) loaded neutrophils (10×10^6/2 ml) in the presence of EDTA (5 mM) were exposed (5 min, 37° C.) to PSDP (10−^5-10−^6 M) or EtOH (0.1%), followed by 1 nM fMLP. […] This inhibition was concentration dependent FIG. 7 and significant (n=3, mean±SEM, *P<0.05 by Student's t-test).

[1] = test system: electroporated neutrophils; test: Superoxide anion generation (NADPH oxidase activity) by electroporated neutrophils; type: cell-based, human
From the text: To test the impact of compounds VI and VIII on neutrophil responses, the isolated lipids were introduced into neutrophils by electroporation prior to determining NADPH oxidase activity. […] Prenyl cysteine analogues can disrupt G-protein interaction with activated FMLP receptors (Scheer, A. & Gierschik, P. Biochemistry. 34,4952-4961 (1995), the teachings of which are incorporated herein by reference); therefore to determine compound VI's level of action, neutrophil superoxide anion generation was examined in the presence of phorbol 12-myristate 13-acetate (PMA), a potent trigger for O2- production which bypasses cell surface receptors to stimulate protein kinase C and subsequent NADPH assembly (see for example, Baggiolini, M., Boulay, F., Badwey, J. A. & Curnutte, J. T. FASEB J. 7, […] (1993); FIG. 3c).
After electroporation, cells in cytochrome c (0.7 mg/ml) were exposed (10 min, 37° C.) to PMA (10^−7 M), FMLP (10^−7 M) plus cytochalasin b (15 μg/ml), compound VI (1 μM) or compound VIII (1 μM) and supernatants monitored at 550 nm. Values represent the mean±SEM for n≧4.
Neutrophils (10^7/500 μl) were electroporated (1.65 kV/cm, 250 μF, Ω∞, Invitrogen Electroporator VI) at 0° C. in the presence of 10−^9-10−^6 M compound VI, VIII, FDP, FMP, squalene or vehicle (ethanol 0.2%). After electroporation, cells, in cytochrome c (0.7 mg/ml), were exposed (10 minutes, 37° C.) to either cytochalasin b (5 μg/mL) and FMLP (10^−7 M)(a) or PMA ((10^−7 M)(b) and supernatants monitored at […]. Electroporation gave a 49.9% reduction in FMLP-stimulated NADPH oxidase compared to naive cells. Values (FIGS. 4a and 4b) represent the mean±SEM for n≧3, d≧6. For adhesion (FIGS. 4c and 4d), changes in light transmittance were monitored (as in Fiore, S., Nicolaou, K. C., Caulfield, T., Kataoka, H. & Serhan, C. N. Biochem. J. 266, 25-31 (1990), the teachings of which are incorporated herein by reference) after addition of compounds VI, VIII (1.6 μM) or vehicle (0.5 min) and FMLP (0.5-5 μM) (2.5 min). Cell viability remained>99%. Values represent the mean±SEM for n=3, d=9. 1,4,5-inositol-triphosphate levels were determined (Amersham) in fresh PMN (10^7 cells) exposed (5 minutes, 37° C.) to compound VI, compound VIII (1 μM) or vehicle and stimulated with FMLP (10^−7M, 37° C.) (as in FIG. 4e). % Inhibition after 10 second exposure to FMLP is reported as mean±SEM for n=4, d≧8. *p <0.05 in Student's paired t-test compared with control, while “NS” indicates no significant change compared to incubations in the presence of vehicle (ethanol 0.2%) alone. Stereochemistry of PSDP and PSMP (FIG. 4f) were assigned by routine methods (Poulter, C. D. and Rilling, H. C. Acc. Chem. Res. 11, 307-313, (1978), the teachings of which are hereby incorporated by reference).

neutrophil sonicates = conditions: Levy et al., Nature 1997; cited from earlier work
Phospholipase D (PLD) = test: Phospholipase D inhibition, choline release, Lineweaver-Burk analysis; type: biochemical; conditions: PLD 3 units/125 μL, phosphatidyl choline substrate, 30° C., pH 7.5
From the text: Phospholipase D (PLD) plays a central role in cellular activation in diverse cell types via the release of the bioactive […], phosphatidate. Several agonists operating through different classes of receptors have been defined that stimulate cellular PLD activity. No known endogenous regulators of PLD have been identified. Activation of neutrophils leads to an increase in intracellular phosphatidic acid that is generated predominantly via the hydrolysis of phosphatidyl choline by phospholipase D (Agwu, DE, et al., Journal of Clinical Investigation 1991; 88:531). Because PSDP inhibited phosphatidate mediated superoxide anion generation in human neutrophil sonicates (Levy, BD, et al., Nature 1997; 389:985), its impact on phospholipase D was determined. A purified enzyme was utilized to directly evaluate the action of PSDP with PLD. Lineweaver-Burk plots for PLD (3 units/125 μL; EC 3.1.4.4, Sigma Chemical Co.) in the presence of EtOH (0.2%) or increasing concentrations of PSDP are reported in FIG. 5. After addition of PSDP to PLD (5 min, 30° C.), phosphatidyl choline (lecithin) in 60 mM Tris/HCl+10 mM CaCl2, pH 7.5 was added (30° C.) and reactions were terminated at 30 second intervals (t0-90 sec) with Tris-HCl (1 M) plus EDTA (50 mM). Choline release was quantitated as in Abousalham A. et al. Biochimica et Biophysica Acta 1;1158 (1993). […]

**Q.** Which “inhibition of fMLP-stimulated [Ca2+]i mobilization” value (neutrophils) does the source give for `CC(C)=CCC/C(C)=C/CC/C(C)=C/C1C(COP(=O)(O)OP(=O)(O)O)C1(C)CC/C=C(\C)CCC=C(C)C` (stereo in doubt) [Compound VI, presqualene diphosphate] here?
**A.** Its value is “inhibition”.

**Q.** What about the “inhibition of PMA activated superoxide anion generation at 10 nM” value ([1]; compound 10 nM, PMA 100 nM) of the same compound?
**A.** Its value is “significant inhibition still present”.

**Q.** And the “inhibition of PMA activated superoxide anion generation” value ([1]; compound 1 μM, PMA 100 nM)?
**A.** Its value is 44%.

**Q.** And the “inhibition of neutrophil superoxide anion generation” value ([1]; nM-μM amounts)?
**A.** The value was “inhibited”.

**Q.** What about the “inhibition of the FMLP-triggered generation of superoxide anion” value ([1]; nM-μM quantities introduced by electroporation, FMLP 10^-7 M plus cytochalasin b) of the same compound?
**A.** The value was 60%.

**Q.** What about the “stimulation of O2- production by the compound alone” value ([1]; no agonist, 1 μM (FIG. 3c)) of the same compound?
**A.** Its value is “neither compound VI nor VIII alone stimulated”.

**Q.** What about the “inhibition of phosphatidate mediated superoxide anion generation in human neutrophil sonicates” value (neutrophil sonicates) of the same compound?
**A.** The value was “inhibited”.

**Q.** And the Ki (Phospholipase D (PLD))?
**A.** The Ki was under 100 nM.
